What was measured:
rat EP1 receptor = molecular target: T1, rat EP1 receptor (Rattus norvegicus, UniProt P70597); test: Test for confirming EP1 receptor antagonistic effect: suppression of prostaglandin E2-induced rise in intracellular calcium concentration; assay type: cell-based; details: rat EP1 receptor-expressing COS-1 cells; prostaglandin E2 10 nM; Fluo 4-AM fluorescent signal; test compound 0.1 nM to 10 μM
T1 construct: expressed in transfected cells
T1 sequence (P70597 1-405): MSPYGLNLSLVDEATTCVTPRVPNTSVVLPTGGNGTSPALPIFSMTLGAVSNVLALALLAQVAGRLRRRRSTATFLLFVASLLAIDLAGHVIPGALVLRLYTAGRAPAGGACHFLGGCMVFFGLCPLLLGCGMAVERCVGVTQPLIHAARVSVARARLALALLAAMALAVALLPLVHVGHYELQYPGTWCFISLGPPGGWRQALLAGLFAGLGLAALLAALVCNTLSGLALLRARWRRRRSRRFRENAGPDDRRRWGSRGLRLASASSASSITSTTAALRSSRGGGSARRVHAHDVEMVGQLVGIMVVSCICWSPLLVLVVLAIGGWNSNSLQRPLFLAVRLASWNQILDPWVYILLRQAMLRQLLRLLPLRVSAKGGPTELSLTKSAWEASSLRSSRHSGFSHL
Experimental: (1) Preparation of Rat EP1 Expression Vector
The first PCR was performed with Rat Kidney BD Marathon-Ready cDNA (Nippon Becton Dickinson Co., Ltd.) as a template using a forward primer represented by SEQ ID NO: 1 and a reverse primer represented by SEQ ID NO: 2 and using KOD-Plus-Ver 2.0 (Toyobo Co., Ltd.). The second PCR was further performed in a similar manner with this amplification product as a template using a forward primer represented by SEQ ID NO: 3 and a reverse primer represented by SEQ ID NO: 4. The amplification product obtained by the second PCR was incorporated into a vector (pcDNA3.1 D/V5-His-TOPO (registered trademark), Invitrogen Corporation). This vector with the incorporated amplification product was introduced to E. coli (One Shot TOP10 Competent Cell, Invitrogen Corporation) by a conventional method to perform transformation. This transformed E. coli was cultured for 1 day in an LB agar medium. After the culture, colonies were selected and cultured in an LB liquid medium containing 50 μg/mL of ampicillin. After the culture, the vector was purified using QIAprep Spin Miniprep Kit (Qiagen Corporation). The base sequence (SEQ ID NO: 5) of the inserted site in this vector was compared with the base sequence (Ptger1) of rat EP1 registered under Accession No. NM_013100 in a heretofore known database (NCBI) and consequently was completely identical except for 1 base. Moreover, an amino acid sequence translated from this base sequence was completely identical to the amino acid sequence of the rat EP1 receptor registered under Accession No. NP_037232 in NCBI. Thus, it was confirmed that the cloned gene sequence was the base sequence of the rat EP1 receptor and the obtained amino acid sequence was the rat EP1 receptor. The pcDNA3.1 D/V5-His-TOPO (registered trademark) in which the nucleic acid represented by SEQ ID NO: 5 was inserted was used as a rat EP1 expression vector.
(2) Preparation of Rat EP1 Receptor-Expressing Cell
COS-1 cells (Dainippon Sumitomo Pharma Co., Ltd.) were cultured at 37° C. in an incubator under 5% CO2 gas conditions using a D-MEM liquid medium (containing high glucose and L-glutamine, Invitrogen Corporation) supplemented with a penicillin-streptomycin solution (Invitrogen Corporation, final concentration: 100 U/mL as benzylpenicillin; 100 μg/mL as streptomycin) as antibiotics, MEM non-essential amino acids (Invitrogen Corporation, final concentration: 0.1 mM), and fetal bovine serum (Moregate Biotech, final concentration: 10%), until reaching confluence.
The cells that reached confluence were dissociated with 0.05% trypsin/0.53 mM EDTA.4Na (Invitrogen Corporation) and resuspended in the liquid medium. The resuspended cells were diluted with the liquid medium so that the spread ratio became 1:4 to 1:8, and were cultured.
The cells that reached confluence were dissociated with 0.05% trypsin/0.53 mM EDTA.4Na and resuspended in a D-MEM liquid medium (containing high glucose and L-glutamine, Invitrogen Corporation) supplemented with MEM non-essential amino acids (final concentration: 0.1 mM) and fetal bovine serum (final concentration: 10%). This resuspended cell suspension was prepared with a liquid medium so as to become the number of cells 5×10^4 cells/100 μL of the liquid medium/well in each well of a poly-D-lysine-coated 96-well microplate (BD BioCoat (registered trademark), Nippon Becton Dickinson Co., Ltd.), and this cell preparation was dispensed at 100 μL to each well and seeded. After the seeding, the cells were cultured at 37° C. in an incubator under 5% CO2 gas conditions. The introduction of the rat EP1 expression vector was performed by procedures shown below at the point in time when the cells for introduction of this rat EP1 expression vector adhered (approximately 2 hours after the seeding).
Lipofectamine 2000 (Invitrogen Corporation) was used for the introduction of the rat EP1 expression vector. […]

[1] = test system: 17-PTP-induced bladder contraction; test: Suppressing effect on 17-phenyl trinor prostaglandin E2 (17-PTP)-induced bladder contraction; assay type: in vivo, Wistar-type male rat; details: urethane-anesthetized spinal cord-cut rat; test compound 1 mg/kg i.v. 5 minutes before 17-PTP i.a.; most decreased value until 95 minutes, relative to average before test compound administration
Experimental: (1) Preparation of Experimental Animal
A 10 w/v % urethane solution was subcutaneously administered (s. c.) at a dose of 1.5 g/kg to a Wistar-type male rat to thereby induce anesthesia. Approximately 40 minutes after the urethane administration, the rat was confirmed to be fully anesthetized, hair in the back, the thighs on both sides, the abdomen, and the neck was shaved, and fixation in a face-down position was performed. After midline incision of the dorsal skin, thoracodorsal muscles on both sides were incised along the spine, and the muscular layer was opened with a retractor to expose the thoracic spine. While the ninth thoracic vertebra was pulled cranially, a small hole was made with bone forceps, and from it, the spinal cord was cut using a soldering iron. At this time, in the case where bleeding was heavy, a gelatin sponge for hemostasis was put into the cut portion. The thoracodorsal incision layer was closed using a surgical adhesive, and then, the rat was fixed in a face-up position. […]
The rat was placed in a face-up position on a heating pad for small animals, and a rectal temperature probe was inserted from the anus to keep the body temperature at 37.5° C. The body temperature was confirmed to become 37.5° C., then 0.1 mL of a physiological saline solution was injected into the bladder, and intravesical pressure was measured. […]

SMILES: O=C(O)c1cccc(Cc2c(-c3ccccc3)nn3cc(Cl)ccc23)n1 [Example 3-3, 6-[(6-Chloro-2-phenylpyrazolo[1,5-a]pyridin-3-yl)methyl]pyridine-2-carboxylic acid]
- IC50 (rat EP1 receptor): 8 nM
- Amount of change in intravesical pressure [1]: 53%

— patent US20130331378A1, “PYRAZOLOPYRIDINE DERIVATIVE OR PHARMACOLOGICALLY ACCEPTABLE SALT THEREOF” (KISSEI PHARMACEUTICAL CO., LTD., priority 2011, published 2013)
